The nature of the series: method code SF-AS, from DOI: 10.1111/j.2042-7158.1993.tb07096.x, PMID: 7901370. The conditions noted are these: pH 7.4.

Regarding `O=S(=O)(NC(=S)NC1CCCCC1)c1cnccc1NC1CCCCCCC1`, the logD turned out to be 2.14.
To `CCNC(=S)NS(=O)(=O)c1cnccc1NC1CCCCCCC1` belongs 0.96; to `O=S(=O)(NC(=S)N1CCCCC1)c1cnccc1NC1CCCCC1`, 0.85.
To `O=S(=O)(NC(=S)N1CCCCC1)c1cnccc1NC1CCCCCCC1` belongs 1.6.
Turning to `O=S(=O)(NC(=S)N1CCCCC1)c1cnccc1NC1CCCCCC1`, the pH-dependent lipophilicity (logD) worked out at 1.25.
To `CCNC(=S)NS(=O)(=O)c1cnccc1NC1CCCCC1` belongs 0.2; to `CC(C)NC(=S)NS(=O)(=O)c1cnccc1NC1CCCCCCC1`, 1.3.
On to `O=S(=O)(NC(=S)NC1CCCCC1)c1cnccc1NC1CCCCCC1`, for which the logD was 1.81.
